Results as given in US20240336567A1, “PESTICIDAL AND HERBICIDAL COMPOUNDS AND METHODS OF USE THEREOF” (AG Plenus Ltd, priority 2021, published 2024).

How the values were obtained:
Eragrostis teff = test: HTPS - Monocot - Pre-emergence; assay type: in vivo; settings: N/A: not active
Description: (§1) Arabidopsis thaliana seeds were sown in 96 well plates filled with irrigated Sweet sand (10%>clay) that is washed from salts and minerals using tap water. 5-10 seeds were sown in the center of each well. 7-8 days post sowing, at 2 true leaves stage, thinning out was performed to ensure that compound application is done on a single plant per well. The plates were placed in a controlled greenhouse in a random order inside a bath which allows flooding irrigation with tap water supplemented with a fertilizer. Applied compounds were dissolved into a final solution of 50% acetone, 49.9% DDW, 0.1% tween-20. A 96 well plate was used as a stock plate for preparing application solutions for 8 repeats. Each row contained different concentrations per chemical. Maximal concentration for application was 1.5 Kg/Ha and dilution factor is 2.5. Chemical application was performed one day after thinning out in a chemical hood. 5 μL applied on first two true leaves in each well using 12 channel pipettes. Data collection: RGB (red, green, blue) data for green area per well was documented using camera. Data is collected at a few time points during the experiment: one day after thinning and before chemical application, two-, six- or nine-days post application. During the last two documentations, visual phenotyping was performed. Data analysis: Given RGB results and visual phenotype scores, a student t-test conducted to compare between treatment and control performance for continuous data (RGB) and Fisher exact test to analyze the non-continuous data (phenotypic scores). Dose-Response curves are generated for each treatment to infer ED50 and max. inhibition parameters, using treatment's log concentration range as the […] variable and normalized green area. These experiments are conducted similarly except that either Arabidopsis thaliana or Eragrostis teff seeds were sowed (5-10 or 5-7, respectively), plant thinning out was not performed, compound dissolved into a final solution of 50% acetone, 49.9% DDW, compound application was done at 30 μL volume per well directly on sowed soil before plant emergence and data was collected 10 or 7 days after chemical application on dicot or monocot plants, respectively. Plate imaging performed at 11 and 18 DAA. RGB data for green area per well was documented and used to extract % inhibition. Dose-Response curves were built for each treatment to infer ED50, ED75 and ED90 parameters, using treatment's log concentration range as the independent variable and normalized green area as the dependent variable. Treatments were compared to controls performance given RGB results and using student's t-test (p-val≤0.05).

SETVI = test: In-planta LTP pre-emergence, visual phenotype; assay type: in vivo, Setaria viridis; settings: Setaria viridis, 432 h, monocot, read-out: IG Inhibited growth (% effect)
Description: (§2) A basic panel of 8 weed species (Table 3) were sowed in 4×4×7 cm plastic pots containing inert sand (Sweet sand), intensively washed using osmosis water. Each specie was sowed in a separate pot. In each pot 10-15 seeds were sowed according to the specie viability. Sowing was performed one day before application. The plants were grown for 21 days in a controlled greenhouse (26±2° C. day 20±2° C. night). Hood irrigation (tap water+Shefer 5:3:8 8 mM) was given at a 50% water content by weight. Compounds were soluble in water (DDW), and commercial herbicide control was soluble in formulation B (Table 4). Application was conducted with an industrial sprayer (TeeJet 6502E nozzle) at a rate of 2 kg/ha and spray volume of […]. Pre-emergence advanced dose response experiment application was conducted at six rates between 1-0.0312 kg/ha and spray volume of […]. Percentage of emergence was evaluated at 15 DAA. Visual phenotyping was recorded using a scale of 0-6 (0: no visible effect, 6: maximum effect) at 18 DAA. All experiments included an untreated control, a solvent control and a positive control (commercial herbicide A.I.). Statistical analysis for visual phenotyping determined by a median value of ≥3.5 and Fisher test (pval≤0.05). Statistical analysis for plant emergence determined by % emergence ≥50 and T test (pval≤0.05), as well as Wilcox test (pval≤0.05).

Arabidopsis thaliana = test: HTPS (high throughput on soil) - Dicot - Post-emergence; assay type: in vivo; settings: N/A: not active
Description: as §1, with “area.” for “area. These experiments are conducted similarly except that either Arabidopsis thaliana or Eragrostis teff seeds were sowed (5-10 or 5-7, respectively), plant thinning out was not performed, compound dissolved into a final solution of 50% acetone, 49.9% DDW, compound application was done at 30 μL volume per well directly on sowed soil before plant emergence and data was collected 10 or 7 days after chemical application on dicot or monocot plants, respectively.”

LOLPE = test: In-planta LTP pre-emergence, visual phenotype; assay type: in vivo, Lolium perenne; settings: monocot
Description: as §2

POAAN = test: In-planta LTP pre-emergence, visual phenotype; assay type: in vivo, Poa annua; settings: monocot
Description: as §2

[1] = in vitro thermal shift (binding of compound to the target); settings: thermal shift caused by binding of the compound to the (unnamed) target
AMAPA = test: In-planta LTP pre-emergence, visual phenotype; assay type: in vivo, Amaranthus palmeri; settings: Amaranthus palmeri, 432 h, dicot, read-out: IG Inhibited growth (% effect)
Description: as §2

MATCA = test: In-planta LTP post-emergence, visual phenotype; assay type: in vivo, Matricaria chamomilla; settings: dicot
Description: A basic panel of eight weed species (Table 3) sowed in 4×4×7 cm plastic pots containing a garden mix (klasmann). Each specie was sowed in a separate pot. In each pot, 10-15 seeds were sowed according to the specie viability. Timing of application determined at a 1-2 true leaf stage. The plants grew for 30 days in a controlled greenhouse (26±2° C. day, 20±2° C. night). Hood irrigation (tap water+Shefer 5:3:8 8 mM) was given at a 50% water content by weight. Two days before application, the tested plants thinned down to three plants per pot. Compounds were soluble in water (DDW), and commercial herbicide control was soluble in formulation B (Table 4). […] Plants were evaluated at 3 time points (4, 8, 12 days after application (DAA)). At each time point, visual phenotyping was recorded using a scale of 0-6 (0: no visible effect, 6: maximum effect). […]
Post-emergence advanced dose response experiment included 4 species: SETVI, ECHCO, AMAPA, ABUTH (Tables 3, 5). […] Plants were evaluated at 4 time points (6, 12, 18 and 26 DAA). At each time point, visual phenotyping was recorded using a scale of 0-6 (0: no visible effect, 6: maximum effect). […]
Post-emergence advanced wide panel experiment included 24 weed species (Table 5). […] Visual phenotyping was recorded at 4, 11, 17 and 20 DAA using a scale of 0-6 (0: no visible effect, 6: maximum effect). […]

in vitro Thermal Shift [1]: 9 °C
Compound: NCCOc1ccc(F)c(C(=O)O)c1 [Compound 129]
HTPS - Monocot - Pre ED50 (Eragrostis teff): 550 g/ha
Emax (Eragrostis teff; read-out: HTPS - Monocot - Pre Max effect): 86%
pest or weed control at 2000 g/ha (SETVI): 40%
Emax (Arabidopsis thaliana; read-out: HTPS - Dicot - Post Max effect): 81%
HTPS - Dicot - Post ED50 (Arabidopsis thaliana; from normalized green area): 45 g/ha
IG Inhibited growth (% effect) (LOLPE): IG (40) %
pest or weed control at 2000 g/ha (POAAN; Poa annua, 432 h, read-out: IG Inhibited growth (% effect)): 80%
DE Disturbed emergence (% effect) (POAAN): DE (80) %
pest or weed control at 2000 g/ha (AMAPA): 40%
LOD Lodging (% effect) (MATCA): LOD^3 (40) %
